Data reported in patent US20120265121A1, “PHTHALOCYANINE-BASED ANTIFUNGAL AGENTS” (CASE WESTERN RESERVE UNIVERSITY, priority 2011, published 2012).

Experiments:
[1] = tested on: C. albicans (strain SC-5134); assay: XTT reduction metabolic activity assay; format: cell-based, Candida albicans
Protocol: Metabolic Activity Assay: XTT reduction assays were performed according to the procedure of Chandra et al. Chandra et al., Nature Protocol. 3(12): 1909-2 (2008). Briefly, in the dark, aliquots of 2 ml of cells were treated with 200 nM of Pc 4 in 10% FBS standard growth medium in a 37° C. shaker. The next day, the cells were photoirradiated with red light using a light-emitting diode array (EFOS, Mississauga, Ontario, Canada) at a fluence of 200, 500, 1000 and 2000 mil/cm^2 (1 milliwat/cm^2, ymax ˜670-675 nm) at room temperature. For negative controls, a 2 ml aliquot was not photoirradiated and a 2 ml aliquot simply was loaded overnight with an appropriate amount of N′,N′-dimethylformamide and then photoirridated with the highest fluence the next day. For positive control, either cells were treated with 30% ethanol or 1 uM of Thapsigargin. […] One ml of each treatment condition was used to incubate with XTT (final concentration 1 mg/ml) and menadione (final concentration 1 mM) for 5 hours in the dark and then transferred to 1 ml plastic cuvette for absorbance measurement. Colorimetric changes, which reflect the viability of the cells given different treatment conditions, were measured at 492-nm using a spectrophotometer (Spectronic Genesys™ 5, Analytical Instrument, Golden Valley, Minn., USA). […]

T. rubrum = assay: Clonogenic (CFU) assay after Pc 4-PDT; format: cell-based, Trichophyton rubrum; conditions: 0-2 μM Pc 4, 2.0 J/cm^2
Protocol: Cells were treated with 0-2 μM of Pc 4 for at least 2 hours before being photoirradiated with 2.0 J/cm^2.
Mycologic cure remains the gold-standard in the evaluation of antifungal therapies and leads to lower recurrence rates. […] Immediately after photoirradiation, treated and control samples were diluted and spread 100 μL onto Sabouraud potato agar plates (Becton Dickinson, New Jersey, USA). All plates were incubated at 28° C. and colonies were counted within 5 days.

[2] = tested on: C. albicans (strain SC-5134); assay: DNA fragmentation by agarose gel electrophoresis; format: cell-based, Candida albicans
Protocol: Subsequently, C. albicans total chromosomal DNA was extracted using the MasterPure™ Yeast DNA Purification Kit (Epicentre Biotechnologies, Madison, Wis., USA) per the manufacturer's protocol. Extracted DNA concentrations were determined with a spectrophotometer (Nanodrop™ 3000, ThermoFisher Scientific, Waltham, Mass., USA) at a wavelength range of 260-280 nm. DNA (3.0 μg) was loaded onto a 1.0% (w/v) agarose gel (Bioexpress, Kaysbille, Utah, USA) impregnated with ethidium bromide (ThermoFisher, Waltham, Mass., USA) and subjected to electrophoresis. The gel was subsequently visualized using a UV transilluminator (VersaDoc™, Bio-Rad, Hercules, Calif., USA).

[3] = light dose 50 J/cm^2; cited from earlier work

SMILES: CN(C)CCC[Si](C)(C)O[Si]1(O)n2c3c4ccccc4c2N=C2N=C(N=c4c5ccccc5c(n41)=NC1=NC(=N3)c3ccccc31)c1ccccc12 (stereo not shown) [Pc 4, HOSiPcOSi(CH3)2(CH2)3N(CH3)2]
- metabolic activity (XTT, percent viability), FIG. 1 ([1]; 200 nM Pc 4 + 0.2-2.0 J/cm^2): impairs fungal metabolic activity
- reduction of metabolic activity (XTT) ([1]; highest Pc 4-PDT dose (1.0 μM, 2.0 J/cm^2), within an hour following photoirradiation): ~50%
- survival (CFU) (T. rubrum; terbinafine-resistant strain MRL666): dose-dependent decrease in the survival
- survival (CFU) (T. rubrum; terbinafine-sensitive strain 23013): dose-dependent decrease in the survival
- DNA fragmentation ([2]; 0.4 μM Pc 4-PDT): clear evidence of DNA degradation
- DNA fragmentation ([2]; 0.6 μM Pc 4-PDT): matched that of the hydrogen peroxide positive control
- tolerability [3]: well-tolerated
